Test results: PMC4047118, “BM-1197: A Novel and Specific Bcl-2/Bcl-xL Inhibitor Inducing Complete and Long-Lasting Tumor Regression In Vivo” (PLoS ONE, 2014)
Where “and” joins values, the source holds several entries; their conditions need not be identical. Identical values can stand only once. Like-named read-outs stand apart in the source and are kept apart here.

Assays:
[1] = tested on: MCL1-wild-type (WT) MEF cells; assay: cell growth inhibition, WST assay, wild-type MEF; assay type: cell-based; settings: Mus musculus, 72 h, 3 days
Experimental: (§1) All the SCLC cell lines were purchased from American Type Culture Collection (Manassas, VA) and cultured as recommended. All these cell lines were passaged fewer than 6 months after purchase. MCL1 knockout (MCL1^−/−) MEF cells were kindly provided by Dr. David Huang (The Walter and Eliza Hall Institute of Medical Research, Melbourne, Australia). Cell growth inhibition was evaluated by means of a WST-8 assay (Dojindo, Rockville, MD) as described previously. Mitochondrial membrane potential was determined by JC-1 staining using a JC-1 Mitochondrial Membrane Potential Assay kit (Cayman). Apoptosis analysis was performed using an Annexin V/propidium iodide (PI) apoptosis detection kit (Roche Applied Sciences, Indianapolis, IN).
(§2) (B) MCL1^−/− cells were treated with 100 nM of BM-1197 for 16 h and stained with Annexin V/PI for flow cytometry. […] They are given in the order upper left, upper right, lower left, lower right.

H196 = assay: SCLC cell growth inhibition (WST-8), H196; assay type: cell-based; settings: Homo sapiens, NCI-H196; 96-h incubation, means ± SD (n = 3–6)
Experimental: as §1

DMS53 = assay: SCLC cell growth inhibition (WST-8), DMS53; assay type: cell-based; settings: Homo sapiens, DMS-53; 96-h incubation, means ± SD (n = 3–6)
Experimental: as §1

[2] = tested on: MCL1-deficient (MCL1−/−) MEF cells; assay: cell growth inhibition, WST assay, MCL1-deficient MEF; assay type: cell-based, mouse
Experimental: as §1, §2

Mcl-1 = Mcl-1 (Homo sapiens, UniProt Q07820); assay: fluorescence-polarization (FP) binding assay, Mcl-1
Excerpt: BM-1197 ( Fig 1 ), was synthesized in a similar manner as described for BM-1074 [16]. We evaluated the binding affinities of BM-1197 to Bcl-2, Bcl-xL and Mcl-1 proteins using our optimized fluorescence-polarization (FP) binding assays. […] Of note, the binding affinities of these compounds to Bcl-2 and Bcl-xL proteins are close to the lower limits of the assay and their precise Ki values could not be determined accurately using our competitive, FP binding assays.

Bcl-2 [3] = biological target: T1, Bcl-2 (Mus musculus, UniProt P10417); assay: cellular thermal shift assay (CETSA), Bcl-2; assay type: cell-based; settings: 1 µM, 1 h, MEF MCL1−/− cells
T1 construct: endogenous in cells; host or cells: MEF MCL1-/- cells
Experimental: Drug-target engagement was assessed using CETSA as described by Molina et al.. Briefly, cells were treated with drugs for 1 h, then harvested, washed with PBS, and resuspended in PBS. The resuspended cells were freeze-thawed 4 times. The soluble fraction (lysate) was separated from cell debris by centrifugation at 20000×g for 20 minutes at 4°C and then analyzed by Western blots.
Drug-treated cells were heated at gradient temperature from 42°C to 62°C for 3 min then freeze-thawed 4 times. The soluble fractions of the lysed cells were analyzed by immunoblotting. (B) MEF MCL1^− ^/− cells were treated with drugs at the indicated doses for 1 h before collected for CETSA.

[4] = tested on: panel of 12 SCLC cell lines; assay: growth inhibition in a panel of 12 SCLC cell lines (summary); assay type: cell-based, human; settings: for IC50: Homo sapiens
Experimental: as §1

Bcl-2 [5] = biological target: Bcl-2 (Homo sapiens, UniProt P10415); assay: fluorescence-polarization (FP) binding assay, Bcl-2; settings: means ± SD (n≥3)
Excerpt: BM-1197 ( Fig 1 ), was synthesized in a similar manner as described for BM-1074 [16]. We evaluated the binding affinities of BM-1197 to Bcl-2, Bcl-xL and Mcl-1 proteins using our optimized fluorescence-polarization (FP) binding assays.
Data are expressed as means ± SD (n≥3).

DMS273 = assay: SCLC cell growth inhibition (WST-8), DMS273; assay type: cell-based; settings: Homo sapiens, DMS-273; 96-h incubation, means ± SD (n = 3–6)
Experimental: as §1

H146 = assay: SCLC cell growth inhibition (WST-8), H146; assay type: cell-based; settings: Homo sapiens
Experimental: as §1
Data are representative of two independent experiments.

H146 xenograft tumors = assay: H146 subcutaneous xenograft model; assay type: in vivo, SCID mice
Experimental: Tumor sizes were measured 2–3 times per week. Tumor growth inhibition was calculated by using the formula: 100% (mean volume of controls - mean volume of treated)/mean volume of controls.
Figure 10 In vivo antitumor activity of BM-1197. […] Data shown are mean ± SEM for 6–8 mice. (E & F) SCID mice bearing H146 or H1963 cells were treated with 10 mg/kg of BM-1197 IV for the indicated times. Tumor lysates were analyzed by immunoblotting.

[6] = IV daily 10 mg/kg, 5 days per week for 2 weeks, 8 mice

Chain of Bcl-2 (Homo sapiens, UniProt P10415) (P10415 whole entry): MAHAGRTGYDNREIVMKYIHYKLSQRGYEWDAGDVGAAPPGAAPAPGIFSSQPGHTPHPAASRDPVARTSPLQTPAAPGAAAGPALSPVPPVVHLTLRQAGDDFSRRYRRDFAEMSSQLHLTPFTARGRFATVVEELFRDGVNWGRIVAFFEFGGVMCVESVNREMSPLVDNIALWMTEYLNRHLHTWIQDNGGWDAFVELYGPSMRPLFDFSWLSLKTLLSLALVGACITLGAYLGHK
Chain of Mcl-1 (Q07820 whole entry): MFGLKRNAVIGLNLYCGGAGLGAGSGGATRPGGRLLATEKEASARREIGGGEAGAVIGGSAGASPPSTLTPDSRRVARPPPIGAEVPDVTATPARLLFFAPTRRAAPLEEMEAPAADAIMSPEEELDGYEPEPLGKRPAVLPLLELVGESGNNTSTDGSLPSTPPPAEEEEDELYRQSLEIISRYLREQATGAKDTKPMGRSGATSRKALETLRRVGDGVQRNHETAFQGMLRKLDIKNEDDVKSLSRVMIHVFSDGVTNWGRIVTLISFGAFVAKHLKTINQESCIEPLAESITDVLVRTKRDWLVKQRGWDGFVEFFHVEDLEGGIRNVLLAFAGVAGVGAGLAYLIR
T1 sequence (P10417 whole entry): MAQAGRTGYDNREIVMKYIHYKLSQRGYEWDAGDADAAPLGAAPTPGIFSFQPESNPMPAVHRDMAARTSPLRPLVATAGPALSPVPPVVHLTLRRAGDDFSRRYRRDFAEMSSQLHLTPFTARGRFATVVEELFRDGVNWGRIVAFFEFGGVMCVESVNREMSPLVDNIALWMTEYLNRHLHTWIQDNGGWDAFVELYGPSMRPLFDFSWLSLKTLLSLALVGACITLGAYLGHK

IC50 (H196): > 2000 nM
binding to Mcl-1 (Mcl-1; at 2 µM): fails to bind
selectivity over Mcl-1 (Mcl-1; versus Bcl-2 and Bcl-xL): > 1,000 fold
thermal stability of Bcl-2 protein (Bcl-2 [3]): enhanced
IC50 (Bcl-2 [5]): 3.5 ± 0.7 nM
Ki (Bcl-2 [5]): < 1 nM and 0.7 nM
IC50 (H146; NCI-H146, 96 h, read-out: IC50 (1% FBS), H146, 4 days, WST assay, 1% FBS): 1.9 nM
IC50 (H146; NCI-H146, 96 h, read-out: IC50 (1% FBS+3% HSA), H146, 4 days, WST assay, 1% FBS+3% HSA): 1.9 nM
IC50 (H146; NCI-H146, 96 h, read-out: IC50 (10% FBS), H146, 4 days, WST assay, 10% FBS): 2.6 nM
IC50 (H146; NCI-H146, 96 h, read-out: IC50 (50% FBS), H146, 4 days, WST assay, 50% FBS): 4.8 nM
IC50 (H146; NCI-H146, 96-h incubation, means ± SD (n = 3–6), read-out: IC50 cell growth, H146): 3 ± 2 nM
SMILES: Cc1c(S(C)(=O)=O)c(-c2cc(F)cc(N3CCN(c4ccc(NS(=O)(=O)c5ccc(N[C@H](CCN6CCC(O)CC6)CSc6ccccc6)c(S(=O)(=O)C(F)(F)F)c5)cc4)CC3)c2)c(-c2ccc(Cl)cc2)n1C(C)C [BM-1197]
IC50 [1]: > 2000 nM
IC50 (DMS53): 538 ± 254 nM
times more potent than ABT-263 in inhibition of cell growth ([2]; MCL1−/− cells): ~8 times
IC50 ([2]; Mus musculus, MEF, 72 h, 3 days, WST assay): 5 ± 3 nM
fold more potent than ABT-263 ([4]; 4 cell lines most sensitive to BM-1197): 5-26 fold
IC50 ([4]; 2 of 12 SCLC cell lines, read-out: IC50 values in the 2 cell lines with weak activity): > 2000 nM
IC50 ([4]; 3 of 12 SCLC cell lines, read-out: IC50 values in the 3 cell lines with moderate activity): ~600 nM
IC50 ([4]; 7 of 12 SCLC cell lines, read-out: IC50 values in the 7 cell lines with potent activity): 3 to 82 nM
IC50 (DMS273): > 2000 nM
mice tumor free 50 days after the end of the weekly treatment (H146 xenograft tumors; 15 mg/kg weekly IV): 5 of 8
mice with complete tumor regression after eight weekly doses (H146 xenograft tumors; 15 mg/kg weekly IV): 7 of 8
mice with complete tumor regression after five weekly doses (H146 xenograft tumors; 15 mg/kg weekly IV): 4 of 8
decrease of mean tumor volume after 7 doses (H146 xenograft tumors; IV daily 10 mg/kg): 85%
decrease of mean tumor volume after two doses (H146 xenograft tumors; IV daily 10 mg/kg): 40%
mice tumor free 60 days after the end of the treatment (H146 xenograft tumors; [6]): 5 mice
mice tumor free for at least 32 days after the end of the treatment (H146 xenograft tumors; [6]): 8 mice
mice with rapid and complete tumor regression (H146 xenograft tumors; [6]): 8 mice
mean tumor volume after two doses (H146 xenograft tumors; IV daily 10 mg/kg, from 114 mm^3): 69 mm^3
weight loss compared to control group (H146 xenograft tumors; all dose-schedules in H146 model, no other signs of toxicity): no statistically significant weight loss
reduction of mean tumor volume on day 7 (H146 xenograft tumors; single 10 mg/kg dosing, weekly IV schedule): 32%
tumor regression on day 7 (H146 xenograft tumors; single 15 mg/kg dosing, weekly IV schedule): 66%
apoptosis biomarkers in H146 tumors (H146 xenograft tumors; single dose 10 mg/kg IV, as early as 3 h, persisting at least 24 hr): rapid and robust caspase-3 activation and PARP cleavage
